Data taken from patent US6413979B1, “Substituted 5-(2,2-difluoro-1,3-benzodioxol-5-yl) cyclopentenopyridine derivative” (Banyu Pharmaceutical Co., Ltd., priority 1998, dated 2002).
Like-named read-outs stand apart in the source and are kept apart here.

How the values were obtained:
[1] = target: T1, ETB receptor (Homo sapiens, UniProt P24530); experiment: Endothelin binding inhibition test on human endothelin receptors ([125I]endothelin-1), ETB; conditions: human cell membranes, 20 pM [125I]endothelin-1, 4 hours incubation
T1 construct: host or cells: human Girardi heart cells (membranes)
T1 sequence (P24530 27-442): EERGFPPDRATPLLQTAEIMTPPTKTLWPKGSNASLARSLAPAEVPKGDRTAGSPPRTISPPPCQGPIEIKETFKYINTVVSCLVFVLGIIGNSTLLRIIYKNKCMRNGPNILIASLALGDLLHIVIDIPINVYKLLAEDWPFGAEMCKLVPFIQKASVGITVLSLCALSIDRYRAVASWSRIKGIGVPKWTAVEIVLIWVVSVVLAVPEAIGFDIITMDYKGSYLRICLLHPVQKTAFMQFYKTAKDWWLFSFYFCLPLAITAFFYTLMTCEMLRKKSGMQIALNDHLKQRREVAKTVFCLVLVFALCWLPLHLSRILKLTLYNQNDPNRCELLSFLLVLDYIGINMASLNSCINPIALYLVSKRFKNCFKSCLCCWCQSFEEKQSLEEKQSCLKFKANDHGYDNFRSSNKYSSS
Method: (§1) Endothelin Binding Inhibition Test on Human Endothelin Recepters
The human neuroblastoma SK-N-MC cells or the human Giradi heart cells, purchased from Dainippon Seiyaku (Japan), were cultured in minimal essential medium supplemented with fetal calf serum. The cells were collected and homogenized in 10 mM MOPS buffer (pH 7.4) containing 154 mM NaCl, 10 mM KCl, 0.8 mM CaCl2 and 20% sucrose at 4° C. using a polytron homogenizer. The homogenate was then centrifuged at 10,000×g for 15 minutes. The supernatant was centrifuged at 100,000×g for 1 hour at 4° C. Then the pellet was washed with 5 mM HEPES/Tris buffer (pH 7.4). […] After the filtration, the filters were washed with buffer B, and the radioactivity on the filters was measured in a γ counter. Nonspecific binding was determined in the presence of 200 nM endothelin-1. […]
(§2) where (A): for nonspecific binding including 200 nM of unlabeled endothelin-1 as the final concentration, (B): for total binding including labeled endothelin-1 without a test compound, and (C): for binding including labeled endothelin-1 with a concentration of a test compound, show the radioactivity.

[2] = target: T2, ETA receptor (Homo sapiens, UniProt P25101); experiment: Endothelin binding inhibition test on human endothelin receptors ([125I]endothelin-1), ETA
T2 construct: host or cells: human neuroblastoma SK-N-MC cells (membranes)
T2 sequence (P25101 21-427): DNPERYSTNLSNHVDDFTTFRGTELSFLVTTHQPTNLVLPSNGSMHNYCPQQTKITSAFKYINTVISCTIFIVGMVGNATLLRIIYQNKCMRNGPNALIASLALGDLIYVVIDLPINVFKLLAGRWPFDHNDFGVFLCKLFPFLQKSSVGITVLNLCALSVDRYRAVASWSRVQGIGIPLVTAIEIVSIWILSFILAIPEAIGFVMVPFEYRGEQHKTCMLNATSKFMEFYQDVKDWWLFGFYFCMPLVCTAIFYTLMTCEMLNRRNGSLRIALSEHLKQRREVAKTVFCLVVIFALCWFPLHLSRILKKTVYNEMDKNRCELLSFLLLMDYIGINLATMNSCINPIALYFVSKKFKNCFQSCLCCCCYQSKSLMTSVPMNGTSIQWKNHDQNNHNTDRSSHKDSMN
Method: as §1
The human neuroblastoma SK-N-MC cells or the human Giradi heart cells, purchased from Dainippon Seiyaku (Japan), were cultured in minimal essential medium supplemented with fetal calf serum. The cells were collected and homogenized in 10 mM MOPS buffer (pH 7.4) containing 154 mM NaCl, 10 mM KCl, 0.8 mM CaCl2 and 20% sucrose at 4° C. using a polytron homogenizer. The homogenate was then centrifuged at 10,000×g for 15 minutes. The supernatant was centrifuged at 100,000×g for 1 hour at 4° C. Then the pellet was washed with 5 mM HEPES/Tris buffer (pH 7.4). The resulting membranes (50 μl) were mixed with [^125I]endothelin-1 (20 pM) and 4 μl of DMSO solution of a test compound in 67 mM Tris/HCl buffer (pH 7.4) containing 0.13 mM phenylmethanesulfonyl fluoride, 1.3 μM pepstatin, 2.7 μM leupeptin, 1.3 mM 1,10-phenanthroline, 1.3 mM EDTA, 13 μM CaCl2, 13 μM MgCl2 and 0.13% bovine serum albumin (BSA) in a total volume of 0.35 ml. After 4 hours incubation, cold 5 mM HEPES/Tris buffer (pH 7.4) containing 0.3% BSA (Buffer B) was added to the mixture, and free and bound [^125I]endothelin-1 were separated by filtration using Whatman GF/C glass fiber filters. After the filtration, the filters were washed with buffer B, and the radioactivity on the filters was measured in a γ counter. Nonspecific binding was determined in the presence of 200 nM endothelin-1.
The concentration of a test compound of the present invention causing 50% inhibition of [^125I]endothelin-1 binding (IC50 value) was derived by the following [^125I]endothelin-1 binding inhibition D (%): [formula]
as §2

[3] = test system: endothelin-induced contraction of iliac artery specimen
Method: Effect on Endothelin-induced Contraction of Iliac Artery Specimen from Rabbit
The iliac artery was excised from a rabbit and made into a spiral specimen of 1 mm wide and 10 mm long. The specimen was stripped of the endothelial cells and suspended in a 5 ml Magnus tube filled with Krebs-Henseleit solution saturated with a gas mixture of O2 (95%) and CO2 (5%), and the change in tension was isometrically measured and recorded.
The effects of a compound of the present invention on the dose-response curve obtained by cumulative addition of endothelin-1 to the Magnus tube were investigated. A compound of the present invention was added to the Magnus tube at a final concentration of 10 μM 20 minutes before the addition of endothelin-1.

[4] = 10 mg/kg as sodium salt in water, SD male rats, bioassay
Method: Concentration in Rat Plasma after Oral Administration
SD male rats (8 weeks old, n=3) were subjected to cannulation of the carotid artery beforehand and after the recovery from the surgery, subjected to a fast of one night for the test. The sodium salt of the diastereomer A prepared in Example 14, which is a representative compound of the present invention, was dissolved in water, and the resulting aqueous solution (concentration: 2.0 mg/ml) was forcibly administrated into the stomach in an amount of 10 mg/kg by gavage. Before the administration and 1, 4 and 8 hours after the administration, 120 μl of the blood was withdrawn from the cannulae in the carotid arteries with the aid of heparin and the plasma was separated by cold centrifugation. 25 μl of portions of the plasma were deproteinized by adding 100 μl of ethanol and centrifuged (10,000×g, 10 minutes, 0° C.) under cooling. 80 μl portions of the supernatants was used for a bioassay of the concentration in plasma.

Structure (SMILES) | IC50 [1] [nM] | binding-inhibitory activity to ETA receptor compared with ETB receptor (in words) [2] | IC50 ([2]; human cell membranes, 20 pM [125I]endothelin-1, 4 hours incubation) [nM] | ETB/ETA ([2]; ratio of IC50 values) | change in the maximum response to endothelin-1 ([3]; concentrations from 0.1 μM to 10 μM) | effect on the dose-response curve for endothelin-1 ([3]; concentrations from 0.1 μM to 10 μM, added 20 minutes before endothelin-1) | effect of the compound by itself on the artery specimen ([3]; without endothelin-1) | concentration in rat plasma ([4]; 1 hour after oral administration) [ng/mL] | concentration in rat plasma ([4]; 4 hours after oral administration) [ng/mL] | concentration in rat plasma ([4]; 8 hours after oral administration) [ng/mL]
COc1ccc([C@@H]2c3nc(NC(C)C)ccc3[C@H](c3ccc4c(c3)OC(F)(F)O4)[C@H]2C(=O)O)c(CC(C)C(=O)O)c1 (single isomer, unassigned; diastereomer a) [Diastereomer A of example 18] | 78 | far higher binding-inhibitory activity to ETA receptor than to ETB receptor | 0.056 | ETB/ETA = 1400 |  |  |  |  |  | 
COc1ccc([C@@H]2c3nc(NC(C)C)ccc3[C@H](c3ccc4c(c3)OC(F)(F)O4)[C@H]2C(=O)O)c(CC(C)CO)c1 (single isomer, unassigned; diastereomer a) [diastereomer A prepared in Example 14] |  |  |  |  | no change in the maximum response | appreciably shifted the dose-response curve for endothelin-1 to the right | no effect on the artery specimen by itself | 452 | 124 | 203
